One data set addresses HERG potassium channel (Homo sapiens, UniProt Q12809). As to the kind of experiment: Inhibition at HERG potassium channel (prior-art compound). The conditions noted are these: background statement on prior-art compound of WO 0208928.
Data set [1] deals with T1, Human HERG (Homo sapiens, UniProt Q12809).
Experimental: (§1) Human HERG transfected HEK293S cells were prepared and grown in-house. The collected cells were suspended in 50 mM Tris-HCl (pH 7.4 at 4° C.) and homogenized using a hand held Polytron PT 1200 disruptor set at full power for 20 sec on ice. The homogenates were centrifuged at 48,000×g at 4° C. for 20 min. The pellets were then resuspended, homogenized, and centrifuged once more in the same manner. The final pellets were resuspended in an appropriate volume of 50 mM Tris-HCl, 10 mM KCl, 1 mM MgCl2 (pH 7.4 at 4° C.), homogenized, aliquoted and stored at −80° C. until use. An aliquot of membrane fractions was used for protein concentration determination using BCA protein assay kit (PIERCE) and ARVOsx plate reader (Wallac).
(§2) Binding assays were conducted in a total volume of 200 μl in 96-well plates. Twenty μl of test compounds were incubated with 20 μl of [^3H]-dofetilide (Amersham, final 5 nM) and 160 μl of membrane homogenate (25 μg protein) for 60 minutes at room temperature. Nonspecific binding was determined by 10 μM dofetilide at the final concentration. Incubation was terminated by rapid vacuum filtration over 0.5% presoaked GF/B Betaplate filter using Skatron cell harvester with 50 mM Tris-HCl, 10 mM KCl, 1 mM MgCl2, pH 7.4 at 4° C. The filters were dried, put into sample bags and filled with Betaplate Scint. Radioactivity bound to filter was counted with Wallac Betaplate counter.
Another data set addresses T2, NR2B receptor (Rattus norvegicus, UniProt P35439+Q00960).
T2 construct: Membranes were prepared by homogenization of forebrain of male CD rats; from tissue; host or cells: forebrain of male CD rats (P2 membrane)
As to the kind of experiment: NR2B Binding Assay. The note with it: forebrain P2 membranes of male CD rats; 5 nM [3H] NR2B ligand. On the procedure: The activity of the cycloalkylene amide compounds of the present invention, as NR2B antagonists, is determined by their ability to inhibit the binding of NR2B subunit at its receptor sites employing radioactive ligands.
The NR^2B antagonist activity of the cycloalkylene amide compounds is evaluated by using the standard assay procedure described in, for example, J. Pharmacol., 331, pp 117-126, 1997. This method essentially involves determining the concentration of the individual compound required to reduce the amount of radiolabelled NR2B ligands by 50% at their receptor sites, thereby affording characteristic IC50 values for each compound tested. More specifically, the assay is carried out as follows.
Membranes were prepared by homogenization of forebrain of male CD rats weighing between 170˜190 g by using glass-Teflon homogenizer in 0.32 M sucrose at 4° C. The crude nuclear pellet was removed by centrifugation at 1000×g for 10 min, and the supernatant centrifuged at 17000×g for 25 min. The resulting pellet was resuspended in 5 mM Tris acetate pH 7.4 at 4° C. for 10 min to lyse cellular particles and again centrifuged at 17000×g. The resulting pellet (P2 membrane) was washed twice in Tris acetate, resuspended at 5.5 mg protein/ml and stored at −20° C. until use. All the manipulation was done on ice, and stock solution and equipment were kept on ice at all time.
For the saturation assay, receptor saturation was determined by incubating [^3H]-1-[(1S*,2S*)-2-hydroxy-2-(4-hydroxyphenyl)-1-methylethyl]-4-phenylpiperidin-4-ol and 50 μg protein of P2 membrane for 60 minutes at room temperature in a final 100 μl of incubation buffer (50 mM Tris HCl, pH7.4). Total and non-specific bindings (in the presence of 10 μM of unlabeled 1-[(1S*,2S*)-2-hydroxy-2-(4-hydroxyphenyl)-1-methylethyl]-4-phenylpiperidin-4-ol) were determined in a range of [^3H]-1-[(1S*,2S*)-2-hydroxy-2-(4-hydroxyphenyl)-1-methylethyl]-4-phenylpiperidin-4-ol concentrations (0.625 nM to 60 nM).
For the competition assay, test compounds were incubated in duplicate with 5 nM [^3H]-1-[(1S*,2S*)-2-hydroxy-2-(4-hydroxyphenyl)-1-methylethyl]-4-phenylpiperidin-4-ol and 50 μg protein of P2 membrane for 60 minutes at room temperature in a final 100 μl of 50 mM Tris HCl buffer (pH7.4). Nonspecific binding was determined by 10 μM of unlabeled 1-[(1S*,2S*)-2-hydroxy-2-(4-hydroxyphenyl)-1-methylethyl]-4-phenylpiperidin-4-ol (25 μl). The saturation derived KD gained in saturation assay was used for all Ki calculations.
All incubations were terminated by rapid vacuum filtration over 0.2% polyethyleneimine soaked Whatman GF/B glass fibre filter paper using a SKATRON cell harvester followed by three washes with ice-cold filtration buffer (5 mM Tris HCl, pH 7.4.). Receptor-bound radioactivity was quantified by liquid scintillation counting using Packard LS counter. Competition assays were performed by counting Wallac GF/B filters on Betaplate scintillation counter (Wallac).

The target in data set [2] is T1, Human HERG. As to the kind of experiment: Human Dofetilide Binding Assay.
Experimental: as §1, §2

IC50 and melting point data for 8 compounds are collected here from US20070167452A1, “Therapeutic amide derivatives” (PFIZER, INC., priority 2004, published 2007).

Like-named read-outs stand apart in the source and are kept apart here.

T1 sequence (Q12809 whole entry): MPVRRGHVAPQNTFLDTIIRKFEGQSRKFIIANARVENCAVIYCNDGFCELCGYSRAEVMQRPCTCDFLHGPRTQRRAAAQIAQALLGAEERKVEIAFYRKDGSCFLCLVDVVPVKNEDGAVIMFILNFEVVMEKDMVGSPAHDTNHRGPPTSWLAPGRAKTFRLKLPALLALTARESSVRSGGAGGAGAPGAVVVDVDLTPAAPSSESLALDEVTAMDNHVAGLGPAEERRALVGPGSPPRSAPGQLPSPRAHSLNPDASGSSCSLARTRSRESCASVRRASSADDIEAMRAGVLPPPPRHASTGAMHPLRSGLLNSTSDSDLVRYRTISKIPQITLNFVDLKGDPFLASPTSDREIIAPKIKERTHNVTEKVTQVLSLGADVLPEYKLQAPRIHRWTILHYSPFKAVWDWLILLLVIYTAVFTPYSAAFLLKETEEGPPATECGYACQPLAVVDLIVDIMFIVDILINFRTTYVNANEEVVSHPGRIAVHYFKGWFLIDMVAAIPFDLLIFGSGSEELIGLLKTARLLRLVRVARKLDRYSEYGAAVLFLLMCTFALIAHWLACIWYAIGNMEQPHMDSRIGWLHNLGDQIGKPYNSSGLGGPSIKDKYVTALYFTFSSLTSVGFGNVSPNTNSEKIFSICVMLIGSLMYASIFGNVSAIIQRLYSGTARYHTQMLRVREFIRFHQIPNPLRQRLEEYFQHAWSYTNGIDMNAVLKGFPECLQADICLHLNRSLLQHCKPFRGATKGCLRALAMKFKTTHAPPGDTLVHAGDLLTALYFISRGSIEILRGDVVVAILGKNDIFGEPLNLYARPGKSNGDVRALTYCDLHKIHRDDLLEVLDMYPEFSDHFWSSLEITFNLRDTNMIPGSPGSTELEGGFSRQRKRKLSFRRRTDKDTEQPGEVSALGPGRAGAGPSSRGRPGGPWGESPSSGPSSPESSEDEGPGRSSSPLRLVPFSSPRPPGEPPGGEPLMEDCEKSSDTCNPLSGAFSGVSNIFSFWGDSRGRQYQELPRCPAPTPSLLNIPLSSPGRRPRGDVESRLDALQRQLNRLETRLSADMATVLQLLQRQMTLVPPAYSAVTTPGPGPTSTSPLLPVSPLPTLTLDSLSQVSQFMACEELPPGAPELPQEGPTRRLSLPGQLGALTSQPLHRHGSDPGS
T2 sequence (Q00960 27-1482, other chains not shown): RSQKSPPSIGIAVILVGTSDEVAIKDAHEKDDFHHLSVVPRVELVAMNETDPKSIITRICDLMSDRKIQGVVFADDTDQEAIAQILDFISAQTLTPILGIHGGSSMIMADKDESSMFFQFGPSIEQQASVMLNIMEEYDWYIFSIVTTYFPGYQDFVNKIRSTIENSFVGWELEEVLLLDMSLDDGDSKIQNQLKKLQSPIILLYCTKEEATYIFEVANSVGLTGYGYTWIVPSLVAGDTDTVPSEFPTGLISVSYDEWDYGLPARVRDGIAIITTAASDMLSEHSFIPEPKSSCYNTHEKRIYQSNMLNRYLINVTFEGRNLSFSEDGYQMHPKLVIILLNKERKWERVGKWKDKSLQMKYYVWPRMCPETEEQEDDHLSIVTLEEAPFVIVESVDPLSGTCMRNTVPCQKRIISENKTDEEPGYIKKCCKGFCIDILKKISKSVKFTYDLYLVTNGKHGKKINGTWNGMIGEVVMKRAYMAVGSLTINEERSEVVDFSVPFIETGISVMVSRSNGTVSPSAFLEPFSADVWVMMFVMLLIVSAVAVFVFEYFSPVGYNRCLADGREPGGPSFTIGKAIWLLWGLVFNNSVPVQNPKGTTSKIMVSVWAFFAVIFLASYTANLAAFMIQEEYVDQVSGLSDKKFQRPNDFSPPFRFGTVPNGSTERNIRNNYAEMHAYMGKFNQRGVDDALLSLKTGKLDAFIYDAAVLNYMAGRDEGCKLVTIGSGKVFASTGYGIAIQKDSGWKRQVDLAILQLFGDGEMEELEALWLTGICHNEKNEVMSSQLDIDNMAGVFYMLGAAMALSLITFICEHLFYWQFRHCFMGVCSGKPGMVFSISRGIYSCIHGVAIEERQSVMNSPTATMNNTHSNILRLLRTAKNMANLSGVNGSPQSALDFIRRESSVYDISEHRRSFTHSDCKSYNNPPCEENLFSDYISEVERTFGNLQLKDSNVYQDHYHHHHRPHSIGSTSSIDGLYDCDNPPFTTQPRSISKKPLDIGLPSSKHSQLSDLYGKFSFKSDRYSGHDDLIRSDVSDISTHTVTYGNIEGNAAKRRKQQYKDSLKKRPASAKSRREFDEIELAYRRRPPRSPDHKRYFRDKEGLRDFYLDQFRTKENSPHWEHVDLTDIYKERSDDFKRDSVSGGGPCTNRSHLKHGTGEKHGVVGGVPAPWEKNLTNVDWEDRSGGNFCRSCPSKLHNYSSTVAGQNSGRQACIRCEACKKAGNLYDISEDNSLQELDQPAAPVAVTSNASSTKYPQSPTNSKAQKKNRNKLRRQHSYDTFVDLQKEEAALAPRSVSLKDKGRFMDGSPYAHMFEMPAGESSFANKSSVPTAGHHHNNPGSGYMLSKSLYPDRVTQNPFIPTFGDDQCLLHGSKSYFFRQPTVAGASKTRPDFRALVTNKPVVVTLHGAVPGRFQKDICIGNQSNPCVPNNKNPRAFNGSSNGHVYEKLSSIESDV
HERG potassium channel, sequence (Q12809 whole entry): as the sequence (Q12809 whole entry) above

Take `O=C(NCC1CCN(CCCc2ccccc2)CC1)c1ccc(O)cc1` [Compound (i)]: on HERG potassium channel, the IC50 (usually the point on the concentration scale where inhibition reaches its midpoint) is less than 3000 nM.
As for `O=C(NC[C@H]1CC[C@@H](OCCc2ccccc2)CC1)c1ccc(O)nc1` [Example 71, 6-Hydroxy-N-{[cis-4-(2-phenethoxy)cyclohexyl]methyl}nicotinamide], the IC50 at Human HERG [1] was more than 100000 nM; on NR2B receptor it was 7.1 nM.
Regarding `O=C(NCC1(O)CCC(COCc2cccc(F)c2)CC1)c1ccc(O)c(F)c1` (stereo not drawn) [Example 50, 3-Fluoro-N-[(trans-4-{[(3-fluorobenzyl)oxy]methyl}-1-1-hydroxycyclohexyl)methyl]-hydroxybenzamide], the IC50 was more than 100000 nM against Human HERG [1] and 27.5 nM at NR2B receptor.
As to `O=C(NC[C@]1(O)CC[C@H](COc2cccc(Cl)c2)CC1)c1ccc(O)cc1` [Example 15, N-({trans-4-[(3-Chlorophenoxy)methyl]-1-hydroxycyclohexyl}methyl)-4-hydroxybenzamide], the melting point (commonly the temperature of the solid-liquid transition) worked out at 164.9 °C. This compound returned a half-maximal inhibitory concentration (IC50) on Human HERG [2] of 20700 nM. On NR2B receptor, this compound registered an IC50 of 21 nM.
`O=C(NC[C@]1(O)CC[C@H](COc2ccc(F)cc2)CC1)c1ccc(O)cc1` [Example 9, N-({trans-4-[(4-Fluorophenoxy)methyl]-1-hydroxcyclohexyl}methyl)-4-hydroxybenzamide] registered a melting point of 176.4 °C. The IC50 on Human HERG [2] was found to be 26300 nM. The compound also returned an IC50 on NR2B receptor of 7.5 nM.
Consider `Cc1ccc(OC[C@H]2CC[C@@](O)(CNC(=O)c3ccc(O)cc3)CC2)nc1` [Example 67, 4-Hydroxy-N-[(trans-1-hydroxy-4-{[(5-methylpyridin-2-yl)oxy]methyl}cyclohexyl)methyl]benzamide], for which the melting point came out at 196.2 °C. The 50% inhibitory concentration (IC50) at Human HERG [2] was more than 30000 nM. Besides, the IC50 on NR2B receptor is 16.9 nM.
The compound `O=C(NC[C@]1(O)CC[C@H](CCOc2ccccc2F)CC1)c1cn[nH]c1` [Example 56, N-({trans-4-[2-(2-Fluorophenoxy)ethyl]-1-hydroxycyclohexyl}methyl)-1H-pyrazole-4-carboxamide] showed a melting point of 175.1 °C. Also, the IC50 on Human HERG [2] is more than 100000 nM. Besides, the IC50 at NR2B receptor was determined as 30.2 nM.
For the compound `O=C(NC[C@]1(O)CC[C@H](COCc2cccc(F)c2)CC1)c1ccc(O)cc1` [Example 23, N-[(trans-4-{[(3-Fluorobenzyl)oxy]methyl}-1-hydroxycyclohexyl)methyl]-4-hydroxybenzamide], the melting point amounted to 167.6 °C. The compound further returned an IC50 at Human HERG [2] of more than 100000 nM. This compound displayed an IC50 on NR2B receptor of 28.6 nM.
